From patent US12448388B2, “PRMT5 inhibitors and uses thereof” (Gilead Sciences, Inc., priority 2023, dated 2025)
Values after ≈ are worked out from the molar mass of the structure shown. Read-outs that look alike come from different tables or passages of the source.

Columns and labels:
[1] = test system: HCT116 MTAP-deleted cell lines; assay: Cell viability assay (CellTiter-Glo, 7 days), HCT116 MTAP-deleted; assay type: cell-based; settings: for Selectivity: HCT116 WT CC50 versus HCT116 MTAP^del CC50; for plasma-adjusted CC50 (paCC50): paCC50 = CC50-HCT116-MTAP^del * (% free CCM/% free human plasma); for CC50: Homo sapiens, HCT116 MTAP-deleted
Outline: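 HCT116 MTAP-deleted and wild-type cells exposed to serially diluted compound for 7 days at 37 °C, 5% CO2. Viability read by CellTiter-Glo luminescence; CC50 derived per line, with selectivity comparing WT to MTAP-deleted, limited solubility can inflate values marked *.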

[2] = Cell viability assay (CellTiter-Glo, 7 days), HCT116 WT; assay type: cell-based; settings: human, HCT116 WT cells, 7 days of treatment, CTG
Procedure: Control compounds were analyzed in parallel each time for quality control. In Brief, on Day -1, a serial dilution of stock compounds in DMSO was performed using BioMek liquid handlers and dispensed using Echo acoustic dispenser into 384 well plates. Both tool compounds and sample compounds were spotted in the same plate for a dose response of PRMT5 inhibitors. Compound plates were stored as frozen until the cells were ready for seeding. […] After equilibrating the plate in room temperature, the cells were incubated for 7 days inside the sealed incubator set at 37° C. with 90% humidity and 5% CO2. On Day 7, the viability of cells was measured using a CTG assay kit (CellTitre-Glo;Promega cat no. G7573). Shortly, 40 μl per well of luminescent cell viability assay reagent were dispensed using EL460 liquid dispenser 5 μl cassette. CTG luminescence signal was measured using an EnVision plate reader (PerkinElmer) in accordance with manufacturer's instruction. […] Selectivity with * is artificially high due to limited solubility of the compound hampering accurate measurement of WT CC50.

[3] = MDR1/BCRP assay: permeability in cPgp-KO-MDCK-WT cells; assay type: in vitro ADME; settings: dog, pH 7.4
Procedure: The cells were maintained in an incubator at 37° C., 90% humidity, and 5% CO2 until reaching confluence over 5 days in 96-well transwell plates. Experiments were conducted using an HBSS donor buffer (Invitrogen) containing 10 mM HEPES and 15 mM glucose, adjusted to pH 7.4. The receiver well contained HBSS buffer supplemented with 1% BSA, 10 mM HEPES, and 15 mM glucose, and the pH was adjusted to 7.4. TEER values were measured to assess membrane integrity after an initial equilibration with BSA-free transport buffer for 15 minutes. The experiment was started by adding dosing solutions containing test compounds at 1 μM. Cells were dosed on the apical (A) side or basolateral (B) side at 100 μl and 200 μl, respectively, to determine forward (A to B) and reverse (B to A) permeability. At the 2-hour time point, 50 μl samples were collected from the receiver compartment. Each compound was tested in 2 separate replicate wells for each condition. All samples were immediately collected into plates, and 50 μL of acetonitrile was added. Subsequently, 350 μl of 30:70 methanol: acetonitrile containing internal standard was added to precipitate proteins and stabilize the test compounds. To test for non-specific binding and compound instability, the total amount of the drug was quantified at the end of the experiment and compared to the material present in the original dosing solution as a percentage of the recovery. All samples were analyzed by LC-MS/MS using electrospray ionization.
The apparent permeability, Papp, and % recovery were calculated as follows: […]

[4] = PBS solubility (kinetic solubility from DMSO stocks); assay type: physicochemical; settings: 22 °C, aqueous buffer, kinetic from dmso stock; 1x PBS pH 7.4, 1.0% DMSO, 24-hour incubation at ambient temperature
Procedure: Buffer Preparation: 1×PBS, 7.4: Phosphate Buffered Saline solution 10×, PBS (Fisher Bioreagent, part number BP399-500) 50 mL was added to approximately 450 mL HPLC grade H2O. The volume of the solution was then adjusted to 500 mL for a total dilution factor of 1:10 and a final PBS concentration of 1×. The pH of the final solution was measured and found to be 7.4.
The final DMSO Concentration is 1.0% and maximum theoretical compound concentration is 100 μM (assuming stock concentration of 10 mM). The filter plate was sealed. Following 24-hour incubation at ambient temperature (20.8-24.0° C.), the samples were vacuum filtered, and the filtrates were collected in a 96 well polypropylene plate for analysis. The collection plate was sealed for analysis. Filtrates were injected into the nitrogen detector for quantification on Analiza's Automated Discovery Workstation. The results are reported here in both μM and μg/mL.
Calculation of Results: The equimolar nitrogen response of the detector is calibrated using standards which span the dynamic range of the instrument from 0.08 to 4500 μg/ml nitrogen. The filtrates were quantified with respect to this calibration curve. The calculated solubility values are corrected for background nitrogen present in the DMSO, and the media used to prepare the samples. All reported values for compounds containing adjacent nitrogen atoms in a ring structure should be increased by ˜25%. […] The solubility results presented assume that the samples were free of nitrogen containing impurities and are stable under the assay conditions.

[5] = Hepatocyte stability assay, human; assay type: in vitro ADME; settings: human hepatocytes, 1 μM
Procedure: BioreclamationIVT (Baltimore, MD) provided the cryopreserved hepatocytes, hepatocyte thawing (HT) medium, and Krebs-Henseleit buffer (KHB) medium. The stock solution concentration was 1 M in DMSO and was then diluted further in acetonitrile/water (1:1 v/v). All other chemicals were purchased from Sigma-Aldrich (St. Louis, MO) or Thermo Fisher Scientific (Waltham, MA).
The quench solution used to stop reactions in the hepatocyte incubations was comprised of 100% (v/v) acetonitrile. Internal Standard/Quench (IS/Q) solution used to stop reactions with the positive control also contained 200 nM Labetalol.
Metabolic Stability in Cryopreserved Hepatocytes: Test compounds, or the positive control metabolic substrate, was incubated in suspensions of cryopreserved hepatocytes at a final concentration of 1 μM. Vials containing cryopreserved hepatocytes were removed from liquid nitrogen and immediately immersed in a 37° C. water bath. The vials were swirled gently until the contents had thawed. They were then immediately emptied into 48 mL of pre-warmed thawing medium in a 50 mL conical tube. Cells remaining in the vial were re-suspended with 1.0 mL of pre-warmed thawing medium and added to the conical tube. The tube was capped and then gently inverted several times to re-suspend the hepatocytes. The cell suspension was centrifuged at 500×g for 10 minutes at room temperature and the supernatant discarded. The cell pellet was loosened by gently swirling the centrifuge tube. Non-supplemented KHB medium was added to obtain the appropriate target cell density. The viabilities of all cell preparations were ≥85%, assessed by Trypan blue dye exclusion.
For incubations, aliquots of hepatocyte suspension (250 μL containing a cell concentration of 2×10^6 cells/mL) were added to 250 μL of 2 μM substrate (test compound or positive control) in supplemented KHB in duplicate wells in a 24-well plate. Final concentration in the incubations were 1×10^6 cells/mL and 1 μM substrate. A cell-free control incubation (KHB only) was also included. The incubations were carried out with gentle shaking in a 37° C. incubator under a humid atmosphere of 95% air/5% CO2 (v/v). Aliquots (100 μL) were removed after 0, 1, 3, and 6 hours and added to 200 μL quenching solution. The samples were then placed on a shaker for 10 min followed by centrifugation at 3000×g for 20 min. The supernatant was transferred to a new plate and diluted with 100 μL of water to reduce the organic content and then placed on a shaker for 10 mins. Samples were injected and analyzed with methods described below.
Liquid Chromatography: Quantification of positive control and test compound was performed by analyte/internal standard peak area ratios (PAR) measured on a Thermo Scientific™ Q Exactive™ Hybrid Quadrupole-Orbitrap Mass Spectrometer MS/MS with an electrospray interface operating in positive ion mode. The mass spectrometer was coupled to a Dionex Ultimate® 3000 HPLC system. Samples (10 μL aliquots) were injected with a Leap Technologies HTC PAL autosampler. For positive control, the column used was a Thermo Scientific™ Hypersil GOLD™ HPLC column ([…], 50×2.1 mm). Mobile phase A consisted of 95% (v/v) water, 5% (v/v) acetonitrile, and contained 0.1% (v/v) formic acid (FA). Mobile phase B consisted of 95% (v/v) acetonitrile, 5% (v/v) water, and contained 0.1% (v/v) FA. Elution was achieved, at a flow rate of 0.5 mL/min, by a series of linear gradients: initial condition was 5% B at 0 min, isocratic for 20 seconds; then linear gradient to 95% B over 90 seconds, followed by isocratic for 60 seconds at 95% B, and re-equilibrated to initial conditions over 70 seconds.
Metabolic stabilities of positive control and test compound were determined by measuring the rates of disappearance of the parent with time by determining the % of parent remaining at time t (Ct) {Obach 1997}.
Data (% of parent remaining) were plotted on a semi-log scale and fitted using an exponential fit: […]

[6] = Pharmacokinetics in cassette in male Sprague-Dawley rats for Kp measurement; assay type: in vivo; settings: 1 mg/kg, intravenous
Procedure: E.1 Test Animal: Male Sprague-Dawley Rats (225-300 g) with Indwelling Bilateral Jugular Vain Cannula (JVC/JVC) or Single Jugular Vein Cannula (JVC)
E.2 Pharmaceutical Formulation and Administration
Test compound was dissolved in the vehicle of 10% DMSO, 10% ethanol, 40% polyethylene glycol 300, and 40% propylene glycol to get 1 mg/mL test compound solution. The compound was administered by intravenous administration at a dose of 1 mL/kg. Fasting was not required.
• Anticoagulant: K2EDTA • Volume: approximately 225 μL blood at each bleed • Jugula vein via syringe and needle or another method (non-terminal samples) or exsanguination (cardiac puncture) under isoflurane (or CO2 inhalation if isoflurane is unavailable) anesthesia (terminal time points). Blood samples were collected into K2EDTA tubes • Tissue collection and processing: following the terminal blood collection, the brain and CSF were collected from each animal.

[7] = HCT-116, 168 h, 7 days of treatment, CTG, read-out: CC50-HCT116-MTAP^del
[8] = HCT-116, cell viability assay, class symbols, read-out: CC50
[9] = brain Kp = [brain]/[plasma], rat, read-out: Rat brain Kp
[10] = brain Kpu,u = Kp * (plasma free/rat brain free), read-out: Rat brain Kpu,u

Structure (SMILES): Nc1nc2cc(F)c(C(=O)N3CCC[C@@H]4Oc5cc(C(F)(F)F)ncc5[C@@H]43)cc2n2cncc12 [Ff-117, (4-amino-7-fluoroimidazo[1,5-a]quinoxalin-8-yl)((4aS,9bS)-7-(trifluoromethyl)-3,4,4a,9b-tetrahydrofuro[3,2-b:4,5-c′]dipyridin-1(2H)-yl)methanone]
- Selectivity [1]: 69
- plasma-adjusted CC50 (paCC50) ([1]; HCT-116): 269 nM
- CC50 [1, 7]: 18 nM
- CC50 ([1]; HCT-116, cell viability, class symbols, read-out: CC50): < 100 nM
- CC50 at 7 days [2]: 1250 nM
- Papp A→B at 2 h, 1 µM [3]: 11.3 ×10⁻⁶ cm/s
- solubility at 24 h [4]: 54.7 µM (≈ 25.8 µg/mL)
- Human Predicted Hepatocyte CL [5]: 0.05 L/h/kg

Structure (SMILES): Nc1nc2cc(Cl)c(C(=O)N3CCC[C@@H]4Oc5cc(C(F)(F)F)ccc5[C@@H]43)cc2n2cncc12 [Ff-587, (4-amino-7-chloroimidazo[1,5-a]quinoxalin-8-yl)((4aS,9bS)-7-(trifluoromethyl)-3,4,4a,9b-tetrahydrobenzofuro[3,2-b]pyridin-1(2H)-yl)methanone]
- Selectivity [1]: 55
- plasma-adjusted CC50 (paCC50) ([1]; HCT-116): 329 nM
- CC50 [1, 7]: 5 nM
- CC50 [1, 8]: < 100 nM
- CC50 at 7 days [2]: 274 nM
- Kp [6, 9]: 0.52
- Kp [6, 10]: 0.06
- Papp A→B at 2 h, 1 µM [3]: 7.4 ×10⁻⁶ cm/s
- solubility at 24 h [4]: < 1 µM

Structure (SMILES): Nc1nc2ccc(C(=O)N3CCC[C@@H]4Oc5cc(C(F)(F)F)cc(F)c5[C@@H]43)cc2n2cncc12 [Ff-693, (4-aminoimidazo[1,5-a]quinoxalin-8-yl)((4aS,9bS)-9-fluoro-7-(trifluoromethyl)-3,4,4a,9b-tetrahydrobenzofuro[3,2-b]pyridin-1(2H)-yl)methanone]
- Selectivity [1]: 125
- plasma-adjusted CC50 (paCC50) ([1]; HCT-116): 247 nM
- CC50 [1, 7]: 15 nM
- CC50 at 7 days [2]: 1880 nM
- Papp A→B at 2 h, 1 µM [3]: 12.6 ×10⁻⁶ cm/s
- Human Predicted Hepatocyte CL [5]: 0.31 L/h/kg

Structure (SMILES): Nc1nc2ccc(C(=O)N3CCC[C@@H]4Oc5cc(OC(F)(F)F)cc(F)c5[C@@H]43)cc2n2cncc12 [Ff-697, (4-aminoimidazo[1,5-a]quinoxalin-8-yl)((4aS,9bS)-9-fluoro-7-(trifluoromethoxy)-3,4,4a,9b-tetrahydrobenzofuro[3,2-b]pyridin-1(2H)-yl)methanone]
- Selectivity [1]: 199
- plasma-adjusted CC50 (paCC50) ([1]; HCT-116): 289 nM
- CC50 [1, 7]: 25 nM
- CC50 at 7 days [2]: 4990 nM
- solubility at 24 h [4]: 2.5 µM (≈ 1.22 µg/mL)
- Human Predicted Hepatocyte CL [5]: 0.4 L/h/kg

Structure (SMILES): Cc1ncn2c1c(N)nc1ccc(C(=O)N3CCC[C@@H]4Oc5cc(C(F)(F)F)ccc5[C@@H]43)cc12 [Fg-31, (4-amino-3-methylimidazo[1,5-a]quinoxalin-8-yl)((4aS,9bS)-7-(trifluoromethyl)-3,4,4a,9b-tetrahydrobenzofuro[3,2-b]pyridin-1(2H)-yl)methanone]
- Selectivity [1]: 113
- plasma-adjusted CC50 (paCC50) ([1]; HCT-116): 312 nM
- CC50 [1, 7]: 19 nM
- CC50 [1, 8]: < 100 nM
- CC50 at 7 days [2]: 2140 nM
- Kp [6, 9]: 0.76
- Kp [6, 10]: 0.13
- Papp A→B at 2 h, 1 µM [3]: 10.3 ×10⁻⁶ cm/s
- solubility at 24 h [4]: 1.6 µM (≈ 0.748 µg/mL)
